Test results taken from the supplement of paper PMC4954754.
Where “and” joins values, the source holds several entries; their conditions need not be identical. Equal entries are not always repeated.

system: HEK293T-Rex ERSE-FLuc; assay: EC50 for ERSE-FLuc reporter activation; conditions: 18 h
Description: (§1)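 Dose-response of hit compounds in HEK293T-Rex cells stably expressing ERSE-FLuc or XBP1-RLuc reporters, 18 hr treatment, 1536-well; luminescence normalised to 500 nM thapsigargin (100%) and DMSO (0%), fitted to give EC50 (M) and maximal activation; '>' marks EC50 above the top tested dose (~17 µM).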

Compound | EC50 for ERSE-FLuc reporter activation
CCOc1cccc(C(=O)Nc2ccc(-c3nc4ccc(C(=O)c5ccccc5)cc4[nH]3)cc2)c1 | > 11.5 µM
CN1C(=O)/C(=C\c2ccc(O)c(O)c2)SC1=S | > 16.9 µM
N#Cc1c(NC(=O)/C=C/c2ccco2)sc2c1CCCC2 | > 17 µM
COc1cccc(C(=O)/C=C/Nc2cc(C)ccc2O)c1 | 4 µM
Oc1ccc(/C=N/Nc2cccc3cccnc23)cc1O | > 16.9 µM
CCOc1cc(/C=C2/NC(=O)N(Cc3ccc(F)cc3)C2=O)ccc1O | > 16.9 µM
CC(C)NC(=O)c1cc(-c2ccc(O)cc2)on1 | > 16.9 µM
Cc1cc(C)nc(Nc2nc(-c3ccc(O)c(O)c3)cs2)n1 | > 16.9 µM
Cc1ccc2nc(/C(C#N)=C/c3ccc(O)cc3)[nH]c2c1 | > 16.9 µM
O=C(/C=C/c1ccccc1)Nc1ccc(Br)cn1 | > 13.7 µM
CNc1ccc2oc(C[C@H]3O[C@@]4(CC[C@H]3C)O[C@H]([C@H](C)C(=O)c3ccc[nH]3)[C@H](C)C[C@H]4C)nc2c1C(=O)O | 2.39 µM
Fc1ccc(-c2nnc3ccc(N4CCN(c5ccccn5)CC4)nn23)cc1 | > 16.9 µM
COc1ccc(-c2csc(N(CC3CCCO3)C(=O)CCl)n2)cc1 (configuration not stated) | > 16.9 µM
OCCNc1nc(Nc2ccc(Cl)cc2)nc2ccccc12 | 6.19 µM
O=C(/C=C/c1ccccc1)Nc1ccc(Cl)cn1 | > 18.6 µM
N#C/C(=C/c1ccc(O)c(O)c1)c1nc2ccccc2s1 | > 16.9 µM
CCCCNC(=O)c1cc(-c2ccc(F)cc2)on1 | 12.2 µM
Cc1ccc(O)c(NC(=O)c2cc(-c3cccnc3)on2)c1 | 10.8 µM

Compound | EC50 for ERSE-FLuc reporter activation
O=C1N/C(=C/c2ccc(O)cc2)C(=O)N1c1ccccc1 | 3.42 µM
COc1ccc2c(Cl)c(C(=O)Nc3ccccc3C(N)=O)sc2c1 | > 16.9 µM
COc1ccc(C2C=C3Oc4ccccc4N=C3NN2)cc1 (configuration not stated) | > 16.9 µM
O=C(N/N=C/c1cccc2ccccc12)c1ccc2c(c1)OCO2 | > 16.9 µM
Nc1ccccc1NC(=O)c1ccc(C(F)(F)F)cc1 | 9.12 µM
Cc1ccc(O)c(NC(=O)CSc2ccccc2)c1 | 3.9 µM
Cc1ccc(O)c(NC(=O)c2cc(-c3ccc(F)cc3)on2)c1 | > 16.9 µM
COC(=O)c1c(NC(=O)CCl)sc(C(=O)Nc2cccc([N+](=O)[O-])c2)c1C | > 16.9 µM
CN(C)c1ccc(/C=C(/C#N)C(=O)Nc2ccc(O)cc2)cc1 | > 16.9 µM
CC(=Nc1ccc(O)cc1)c1sc2ccccc2c1O | > 19.6 µM
O=c1cc(-c2ccc(O)c(O)c2)oc2cc(O)cc(O)c12 | 14.1 µM and 7.57 µM
CCc1cc2c(=O)c(-c3ccc4c(c3)OCCO4)coc2cc1OC | > 15 µM
COc1ccc(Nc2nccn3c(-c4ccsc4)cnc23)cn1 | > 16.9 µM
CCCCNC(=O)c1cc(-c2cccs2)on1 | 6.65 µM
Cc1cc(C)c(OCC(=O)N/N=C/c2ccc(O)c(O)c2)c(Br)c1 | > 16.9 µM
O=C1NC(=Nc2ccccc2)S/C1=C/c1ccc(O)c(O)c1 | 6.2 µM
Cc1ccc2nc(NC(=O)c3cccc4ccccc34)sc2c1 | > 15.1 µM
Cc1nc(-c2ccc(C(=O)Nc3ccc(O)cc3)cc2)cs1 | > 16.9 µM

system: HEK293T-Rex XBP1-RLuc; assay: EC50 for XBP1-RLuc reporter activation; conditions: 18 h
Description: as §1

Compound | EC50 for XBP1-RLuc reporter activation [µM]
CCOc1cccc(C(=O)Nc2ccc(-c3nc4ccc(C(=O)c5ccccc5)cc4[nH]3)cc2)c1 | 2.33
CN1C(=O)/C(=C\c2ccc(O)c(O)c2)SC1=S | > 16.9
N#Cc1c(NC(=O)/C=C/c2ccco2)sc2c1CCCC2 | > 17
COc1cccc(C(=O)/C=C/Nc2cc(C)ccc2O)c1 | 6.99
Oc1ccc(/C=N/Nc2cccc3cccnc23)cc1O | > 16.9
CCOc1cc(/C=C2/NC(=O)N(Cc3ccc(F)cc3)C2=O)ccc1O | 11.9
CC(C)NC(=O)c1cc(-c2ccc(O)cc2)on1 | > 16.9
Cc1cc(C)nc(Nc2nc(-c3ccc(O)c(O)c3)cs2)n1 | 14.1
Cc1ccc2nc(/C(C#N)=C/c3ccc(O)cc3)[nH]c2c1 | > 16.9
O=C(/C=C/c1ccccc1)Nc1ccc(Br)cn1 | > 13.7
CNc1ccc2oc(C[C@H]3O[C@@]4(CC[C@H]3C)O[C@H]([C@H](C)C(=O)c3ccc[nH]3)[C@H](C)C[C@H]4C)nc2c1C(=O)O | 4.49
Fc1ccc(-c2nnc3ccc(N4CCN(c5ccccn5)CC4)nn23)cc1 | > 16.9
COc1ccc(-c2csc(N(CC3CCCO3)C(=O)CCl)n2)cc1 (configuration not stated) | > 16.9
OCCNc1nc(Nc2ccc(Cl)cc2)nc2ccccc12 | 9.68
O=C(/C=C/c1ccccc1)Nc1ccc(Cl)cn1 | > 18.6
N#C/C(=C/c1ccc(O)c(O)c1)c1nc2ccccc2s1 | > 16.9
CCCCNC(=O)c1cc(-c2ccc(F)cc2)on1 | > 16.9
Cc1ccc(O)c(NC(=O)c2cc(-c3cccnc3)on2)c1 | > 16.9

Compound | EC50 for XBP1-RLuc reporter activation [µM]
O=C1N/C(=C/c2ccc(O)cc2)C(=O)N1c1ccccc1 | 4.36
COc1ccc2c(Cl)c(C(=O)Nc3ccccc3C(N)=O)sc2c1 | > 16.9
COc1ccc(C2C=C3Oc4ccccc4N=C3NN2)cc1 (configuration not stated) | > 16.9
O=C(N/N=C/c1cccc2ccccc12)c1ccc2c(c1)OCO2 | > 16.9
Nc1ccccc1NC(=O)c1ccc(C(F)(F)F)cc1 | > 19.9
Cc1ccc(O)c(NC(=O)CSc2ccccc2)c1 | > 16.9
Cc1ccc(O)c(NC(=O)c2cc(-c3ccc(F)cc3)on2)c1 | > 16.9
COC(=O)c1c(NC(=O)CCl)sc(C(=O)Nc2cccc([N+](=O)[O-])c2)c1C | > 16.9
CN(C)c1ccc(/C=C(/C#N)C(=O)Nc2ccc(O)cc2)cc1 | > 16.9
CC(=Nc1ccc(O)cc1)c1sc2ccccc2c1O | > 19.6
O=c1cc(-c2ccc(O)c(O)c2)oc2cc(O)cc(O)c12 | > 16.9
CCc1cc2c(=O)c(-c3ccc4c(c3)OCCO4)coc2cc1OC | > 15
COc1ccc(Nc2nccn3c(-c4ccsc4)cnc23)cn1 | > 16.9
CCCCNC(=O)c1cc(-c2cccs2)on1 | > 16.9
Cc1cc(C)c(OCC(=O)N/N=C/c2ccc(O)c(O)c2)c(Br)c1 | > 16.9
O=C1NC(=Nc2ccccc2)S/C1=C/c1ccc(O)c(O)c1 | > 15.4
Cc1ccc2nc(NC(=O)c3cccc4ccccc34)sc2c1 | > 15.1
Cc1nc(-c2ccc(C(=O)Nc3ccc(O)cc3)cc2)cs1 | 12.9
